Here are results for three molecules from patent US20030100580A1, “Urotensin-II receptor antagonists” (priority 2002, published 2003).

Series [1] concerns the target T1, cloned human and rat GPR-14 (UniProt Q9UKP6).
T1 sequence (Q9UKP6 1-389): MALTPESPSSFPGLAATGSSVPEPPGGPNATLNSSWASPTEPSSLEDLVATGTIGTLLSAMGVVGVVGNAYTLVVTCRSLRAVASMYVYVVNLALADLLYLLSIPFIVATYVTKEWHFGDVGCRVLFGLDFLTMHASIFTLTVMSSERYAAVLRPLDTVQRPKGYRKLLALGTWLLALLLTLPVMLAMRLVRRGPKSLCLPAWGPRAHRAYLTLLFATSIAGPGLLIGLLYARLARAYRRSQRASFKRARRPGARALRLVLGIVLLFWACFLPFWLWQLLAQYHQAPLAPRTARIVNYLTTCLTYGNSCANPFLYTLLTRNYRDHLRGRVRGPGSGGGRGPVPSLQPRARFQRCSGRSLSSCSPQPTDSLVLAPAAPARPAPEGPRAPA
The experiment in a line: Radioligand binding ([125I] h-U-II) to HEK-293 cell membranes containing GPR-14. The conditions noted are these: HEK-293 membranes, 200 pM [125I] h-U-II; human or rat receptor not specified. Here is the method:
HEK-293 cell membranes containing stable cloned human and rat GPR-14 (20 ug/assay) were incubated with 200 pM [125I] h-U-II (200 Ci/mmol^−1 in the presence of increasing concentrations of test compounds in DMSO (0.1 nM to 10 uM), in a final incubation volume of 200 ul (20 mM Tris-HCl, 5 mM MgCl2). Incubation was done for 30 minutes at room temperature followed by filtration GF/B filters with Brandel cell harvester. ^125I labeled U-U binding was quantitated by gamma counting. Nonspecific binding was defined by ^1251I U-II binding in the presence of 100 nM of unlabeled human U-II. Analysis of the data was performed by nonlinear least square fitting.

Another series concerns rat-isolated aorta. The settings on record: cited from earlier work.

By melting point is commonly meant the temperature, or range, at which the solid turns liquid. In turn, `COc1ccc(S(=O)(=O)Nc2ccc(Cl)c(OCCN(C)C)c2)cc1OC` [Example 1, N-[4-Chloro-3-(2-dimethylamino-ethoxy)phenyl]-3,4-dimethoxy-benzenesulfonamide] had a melting point of 228 to 229 °C.

The Ki is a measure of affinity in units of concentration, obtained from inhibition or displacement. A lower Ki goes with tighter binding. In series [1], `CN(C)CCOc1cc(NS(=O)(=O)c2ccc(Br)cc2)ccc1I` [Example 8, 4-Bromo-N-[4-iodo-3-(2-dimethylamino-ethoxy)-phenyl]-benzenesulfonamide] showed a Ki of 1.3 µM.

For `CC(C)[C@H](NC(=O)[C@@H]1CSSC[C@H](NC(=O)[C@H](CC(=O)O)NC(=O)[C@@H]2CCCN2C(=O)[C@@H](NC(=O)[C@@H](N)CCC(=O)O)[C@@H](C)O)C(=O)N[C@@H](Cc2ccccc2)C(=O)N[C@@H](Cc2c[nH]c3ccccc23)C(=O)N[C@@H](CCCCN)C(=O)N[C@@H](Cc2ccc(O)cc2)C(=O)N1)C(=O)O` [Human Urotensin-II], in the series on rat-isolated aorta, the contractile activity result is on record as “most potent contractile agonist identified to date”.
